Assay results as given in paper PMC12267067, “Targeting GRPR for sex hormone-dependent cancer after loss of E-cadherin” (Nature, 2025).
No end group written: not given here.

How the values were obtained:
[1] = system: Yap1 in Grpr+ mouse melanoma cells (1057); experiment: YAP1 nuclear localization (immunofluorescence); format: cell-based; details: 1057 cells, 1 h, 10 nM GRP and/or 1 µM RC
Procedure: Cells were seeded on coverslips and cultivated until 100% confluence was achieved. After 24 h of starvation in 0.5% FCS for murine melanoma cell lines and 1% FCS for human melanoma, the medium was complemented with 10 nM GRP and/or 1 µM RC for 1 h. Cells were fixed with 4% PFA for 15 min and blocked with 5% normal goat serum and 0.3% Triton X-100 in PBS. Cells were incubated overnight at 4 °C with anti-YAP D8H1X antibody (14074, cell Signaling, 1/100 dilution) in 1% BSA and 0.3% Triton X-100 followed by incubation for 1.5 h at room temperature with goat anti-rabbit Alexa fluor 594 (A-11012, Invitrogen, 1/500 dilution). Coverslips were mounted with Prolong Gold containing 1.5 µg ml^−1 DAPI (P36934, Invitrogen). Images were acquired using an inverted SP8 Leica confocal microscope (Leica Microsystem). YAP1 localization was evaluated using ImageJ Software.

[2] = system: GRPR, Gαq/11 activation; experiment: IP1 detection (HTRF IP-one Gq kit); format: cell-based, mouse; details: 10 nM GRP, 30 min, 37 °C
Procedure: IP1 levels were quantified using the HTRF IP-one Gq detection kit (62IPAPEB, Revvity) following the manufacturer’s protocol. We treated 4,000 cells for 30 min at 37 °C in StimB buffer with 10 nM GRP, 1 µM RC-3095, 1 µM ICI-182,780 or DMSO. FRET signals (620 nm and 665 nm, excitation at 385 nm) were measured using a Clariostar plate reader (BMG Labtech).

[3] = system: YAP1 activation signature; experiment: YAP1 activation signature (GSEA) and Yap1 score by RNA-seq, murine melanoma cell lines; format: cell-based, mouse; details: 4 h, 10 nM GRP
Procedure: The transcriptome, copy-number alteration, mutations and corresponding clinical data of the TCGA–SKCM (n = 473), TCGA–BRCA (n = 1,215), TCGA–STAD (n = 450), TCGA–LUSC (n = 553) and TCGA–KIRC (n = 606) datasets were retrieved from the National Cancer Institute Genomic Data Commons repository using the TCGAbiolinks R package in August 2022 (ref. [51]). The mRNA levels were calculated from RNA-sequencing read counts using RNA-Seq V2 RSEM and normalized to TPM. Expression of CDH1, CCND1, BRAF and KRAS was modelled over time using LOWESS smoothing with 1,860 points. Expression levels from acral melanoma were retrieved from GEO under accession number GSE162682. Survival analyses were carried out by separating the cohort into two groups according to gene expression. The threshold was set to 1 TPM, commonly considered to be the limit for sufficient protein expression of the transcript. The negative group was set to an expression 0.1 TPM or less to have clear separation in terms of expression (factor 10) from the positive group. The YAP and melanoma phenotypic state scores were obtained by averaging the expression of detailed marker genes, or for the mice, from their murine orthologues as described in ref. [52]. The pigmentation state was defined by the expression of MITF, MLANA, TRPM1, DCT and TYR; the starved-like melanoma cell phenotype by the expression of CD36, DLX5, IP6K3, PAX3 and TRIM67; the invasive state by the expression of AXL, CYR61, TCF4, LOXL2, TNC and WNT5A; and the neural crest cell-like phenotypic state by the expression of AQP1, GFRA2, L1CAM, NGFR, SLC22A17 and TMEM176B[52]. The scoring of YAP1 activation was determined from the expression of CYR61, CTGF, TEAD4, LATS2 and CRIM1. Yap scoring was obtained by averaging the fold change of each Yap1 target. The anoikis-resistance score was calculated on the basis of the expression of S100A7A, MTPN, ATP10B, S100A8, RSAD2, RENBP, CDHR1 and CD36. The ER-activation score was calculated according to the expressions of GATA4, SDK2, EGR3, IL19, GSG1L, RSPO1, PGR, IL24 and PDZK1. Expression data from human and mouse normal tissue were downloaded from the Human Protein Atlas (https://www.proteinatlas.org/) and from the EBI expression atlas (https://www.ebi.ac.uk/gxa/home), respectively, both accessed on 7 October 2022. The anatogram was generated using the gganatogram R package.
RNA was extracted from cells and mouse tumours using the miRNeasy kit (Qiagen, 217004), according to the manufacturer’s protocol. RNA integrity (RIN) was measured using an Agilent Bioanalyser 2100 (Agilent Technologies) and an RNA nano 6000 kit (5067-1511, Agilent Technologies). Only RNA with an RNA integrity number (RIN) of more than 7 was used for analysis. This threshold led to the sequencing of 72 mouse melanoma cell lines, 36 human melanoma cell lines and 32 mouse tumours. RNA concentrations were measured using a NanoDrop (NanoDrop Technologies). […] The libraries were equimolarly pooled and subjected to qPCR quantification using the KAPA library quantification kit (Roche). Sequencing was carried out on a NovaSeq 6000 instrument (Illumina) based on a 2 × 100 cycle mode (paired-end reads, 100 bases) using an S1 flow cell to obtain approximately 35 million clusters (70 million raw paired-end reads) per sample. Reads were mapped to the mm10 mouse reference genome (gencode m13 version-GRCm38.p5) or hg38 human reference genome (gencode 42 version-GRCh38.p13) using STAR[60]. […]

GRP: GRPR's natural agonist, endogenous ligand of GRPR (4011670 bachem) (VPLPAGGGTVLTKMYPRGNHWAVGHLM; not fully specified; ends and bridges not checked; UniProt P07492 24-50, looked up)
YAP1 nuclear localization [1]: increased | IP1 production, GRPR-negative cells [2]: not GRPR-negative cells | IP1 production, GRPR-positive cells ([2]; 4,000 cells, StimB buffer, 1 µM RC-3095, 1 µM ICI-182,780 (pre-treatment)): triggered IP1 production | GSEA YAP activation, GRP vs. Mock: NES ([3]; 1014-Ct, female Ecad, Grpr-negative, FDR 0.585): 0.936 | GSEA YAP activation, GRP vs. Mock: NES ([3]; 1014-Grpr, female Ecad, FDR <0.0001): 2.77 | GSEA YAP activation, GRP vs. Mock: NES ([3]; 1064-par, female ΔEcad, FDR <0.0001): 2.34 | GSEA YAP activation, GRP vs. Mock: NES ([3]; 1181-Ct, male Ecad, Grpr-negative, FDR 0.986): 0.527 | GSEA YAP activation, GRP vs. Mock: NES ([3]; 1181-Grpr, male Ecad, FDR 0.003): 1.66
